Laboratory results reported in patent US8501166B2, “Pyrimidinyl indole compounds” (Hutchison Medipharma Limited, priority 2010, dated 2013).
Where a name gives a salt, the structure may show the parent alone. Read-outs that look alike come from different tables or passages of the source.

Tests used:
[1] = tested on: BxPC-3 cells; test: Cell viability test, combination study, BxPC-3; type: cell-based, human; conditions: for inhibition at 2.5 µM / inhibition at 25 µM: Homo sapiens, BXPC-3, 72 h, read-out: Ave. Inhibition rate
Experimental: To evaluate biological activity of a compound in vitro, the cell viability test is applied, in which, IKKβ receptor plays an important role in cell survival and proliferation. Once the IKKβ pathway is blocked by inhibitors, a cell can go through apoptosis or death. The cell viability test provides information on cell survival after treatment with IKK inhibitors.
BxPC-3 cells (ATCC #CRL-1687; human pancreatic cancer cell line) are grown in Roswell Park Memorial Institute (RPMI) 1640 media (Gibco #A10491-01) supplemented with 10% fetal bovine serum (FBS) (Gibco #10099-141). Skov3-luc cells (ATCC, human ovarian carcinoma cell line) are grown in McCoy's 5a medium (Gibco#16600) supplemented with 10% FBS (Gibco#10099-141). For compound testing, BxPc-3 and Skov3-Luc cells are seeded at 2000 and 5000 cells/well respectively in 100 μL of corresponding media specified above for each cell line in 96-well plates 20 h prior to treatment. Cells are treated with a test compound at eight different concentrations in the presence of 0.5% DMSO for 72 h. Cell death in each well is determined by the addition of 20 μL of the One Solution Reagent (CELLTITER 96® AQueous One Solution Cell Proliferation Assay, Promega #G3580). After 2-4 h of incubation at 37° C., optical densities at 492 nm are measured with a microplate reader Inhibition of cell viability is determined by comparison to the control cells treated in the absence of a test compound.
For the combination study of the compound with other antitumor agents, BxPc-3 and Skov3-Luc cells are seeded at 2000 and 5000 cells/well respectively in 100 μL corresponding media specified above for each cell line in 96-well plates 20 h prior to the treatment. The cells are treated with the test compound at a number of concentrations for 30 minutes and then exposed to 5 ng/mL TNFα or 0.15-0.6 uM of VCR (vincristine sulfate) for an additional 72 hours. Cell death in each well is determined by the addition of 20 μL of the One Solution Reagent (CELLTITER 96® AQueous One Solution Cell Proliferation Assay, Promega #G3580). After 2-4 h of incubation at 37° C., optical densities at 492 nm are measured with a microplate reader Inhibition of cell viability is determined by comparison to the control cells treated in the absence of a test compound. For example, the results of the combination study with Example 1 are specially detailed in Table 2.

[2] = tested on: LPS-induced plasma IL-1β production; test: LPS-induced plasma cytokine production in mouse, IL-1β; type: in vivo, Balb/c mice; conditions: even at the dose of 100 mg/kg
Experimental: Alternately, the compound is screened for its ability to inhibit the LPS-induced cytokine production in rat plasma according to the method reported in the literature (Ziegelbauer K, Gantner F, Lukacs N W, et al. Br J. Pharmacol. 2005,145(2):178-92). Briefly, Lewis rats (male, body weight 140 g-180 g) are used in the experiments. Animals (8/group) are given 1 to 100 mg/kg of the testing compound (suspension in 35% solutol & 60% PEG400 & 5% PG) or vehicle by oral gavage at 1 h prior to intraperitoneal administration of LPS 0.4 mg/kg. Ninety minutes after the intraperitoneal administration of LPS, blood is collected in heparin anticoagulated tubes to measure TNFα using R&D System ELISA Kit based on the general Kit protocols. The plasma sample is diluted 100 fold with the dilution buffer and 50 μL of diluted sample is used in each measurement. The plate is read on a SPECTRAMAX® M2e Plus Plate Reader and TNFα levels are analyzed based on the standard curve. The drug levels in plasma are measured with LC-MS-MS. […] Alternately, the compound is screened for its ability to inhibit the LPS-induced cytokine production in mouse plasma. Balb/c mice (female, body weight 18-20 g) are used in the experiments. […] The plate is read on a SPECTRMAX® M2e Plus Plate Reader and the data is analyzed using a standard curve.

[3] = tested on: OVA-induced airway inflammation; test: Ovalbumin (OVA)-induced pulmonary inflammation in mice; type: in vivo, Balb/c mice
Experimental: A compound of the present invention is tested in an OVA-induced pulmonary inflammation model in mice essentially as described in a method reported in the literature (Muriel Pichavant, Sho Goya, Eckard Hamelmann, Erwin W. Gelfand, and Dale T. Umetsu. Animal Models of Airway Sensitization. Current Protocols in Immunology. (1999) 15.18.1-15.18.13). Briefly, female Balb/c mice weighing from 18 to 20 g are sensitized by introperitoneal injection of 100 μL of saline containing 20 μg of OVA and 2 mg of aluminum hydroxide on day 1 and 14. On days 28, 29 and 30, mice are challenged once each by aerosolizing 1% ovalbumin (OVA) in phosphate buffered saline (PBS) for 20 minutes with Buxco Mass Dosing System. […] On day 32, animals from each group are anesthetized with 1% of pentobarbital sodium. The thoracic and abdominal cavities are opened and plasma is collected from centrifuged specimens. The trachea is then dissected and transected. Through the insertion of an 18-gauge catheter into the trachea, the lungs are lavaged with a total of 1.5 mL of sterile PBS and then placed into a specimen container. Cell-free BAL supernatants are obtained by centrifugation of BAL fluids. All serum and BAL supernatants are stored at −80° C. until use. Differential cell counts are performed on cytospin preparations of BAL cells for cell counting and cytokine determination. After the collection of BAL supernatants, the lungs of recipient mice are removed en bloc and fixed by an intratracheal instillation of 10% buffered formalin (in PBS). Three to six paraffin sections are obtained from the perihilar regions of recipient lungs, stained with hematoxylin and eosin, and examined under light microscopy for pathological study.

| Compound | Ave. Inhibition rate ([1]; Example 1 25 μM alone, 72 h, hydrochloride) [%] | inhibition at 2.5 µM ([1]; Example 1 2.5 μM alone) [%] | inhibition at 25 µM ([1]; Example 1 25 μM alone) [%] | inhibition at 2.5 µM ([1]; TNFα 5 ng/mL + Example 1 2.5 μM) [%] | inhibition at 25 µM ([1]; Vincristine 0.15 μM + Example 1 25 μM) [%] | effect on IL-1β production [2] | decrease of eosinophil cell numbers ([3]; 1 mg/kg (bid)) [%] | decrease of eosinophil cell numbers ([3]; 3 mg/kg (bid)) [%] | decrease of eosinophil cell numbers ([3]; 10 mg/kg (bid), p<0.05) [%] | reduction of IL-13 production ([3]; 10 mg/kg, p<0.05) [%] | decrease of eosinophil cell numbers ([3]; 30 mg/kg (bid), p<0.05) [%] | reduction of IL-13 production ([3]; 30 mg/kg, p<0.01) [%] | lung histology, hematoxylin and eosin stains ([3]; Example 2 at 1 to 30 mg/kg) |
| --- | --- | --- | --- | --- | --- | --- | --- | --- | --- | --- | --- | --- | --- |
| O=C(NC1CC1)c1cccc2[nH]c(-c3nc(N[C@@H]4CCC[C@@H]4O)ncc3Cl)cc12 [Example 1, 2-{5-Chloro-2-[(1R,2S)-2-hydroxycyclopentylamino]pyrimidin-4-yl}-N-cyclopropyl-1H-indole-4-carboxamide hydrochloride] | 11.53 | -16.5 | 11.5 | 87.8 | 80.2 | – | – | – | – | – | – | – | – |
| Cl.O=C(NC1CC1)c1cccc2[nH]c(-c3nc(N[C@@H]4CCC[C@H]4O)ncc3Cl)cc12 [Example 2, 2-{5-Chloro-2-[(1R,2R)-2-hydroxycyclopentylamino]pyrimidin-4-yl}-N-cyclopropyl-1H-indole-4-carboxamide hydrochloride] | – | – | – | – | – | no effect was observed | 58.6 | 49.3 | 94.1 | 73.0 | 90.2 | 85.1 | improvement in pulmonary inflammation |
